Reference: patent US20230078820A1, “FE[…] TREATMENT OF DEMYELINATING DISEASES AND CONDITIONS” (ZOGENIX INTERNATIONAL LIMITED, priority 2021, published 2023)

What was measured:
RNF43 = biological target: T1, RNF43 (Homo sapiens, UniProt Q68DV7); assay: 3H-fenfluramine binding to proteins expressed on reverse-transfected HEK293 cell arrays (phosphorimaging); conditions: tritium labeled fenfluramine, 1 or 5 micromolar in confirmation; HEK293 cells; FIG. 1
T1 construct: arrays of expression vectors, encoding full-length human plasma membrane and tethered secreted proteins; expressed in transfected cells; host or cells: HEK293
T1 sequence (Q68DV7 24-783): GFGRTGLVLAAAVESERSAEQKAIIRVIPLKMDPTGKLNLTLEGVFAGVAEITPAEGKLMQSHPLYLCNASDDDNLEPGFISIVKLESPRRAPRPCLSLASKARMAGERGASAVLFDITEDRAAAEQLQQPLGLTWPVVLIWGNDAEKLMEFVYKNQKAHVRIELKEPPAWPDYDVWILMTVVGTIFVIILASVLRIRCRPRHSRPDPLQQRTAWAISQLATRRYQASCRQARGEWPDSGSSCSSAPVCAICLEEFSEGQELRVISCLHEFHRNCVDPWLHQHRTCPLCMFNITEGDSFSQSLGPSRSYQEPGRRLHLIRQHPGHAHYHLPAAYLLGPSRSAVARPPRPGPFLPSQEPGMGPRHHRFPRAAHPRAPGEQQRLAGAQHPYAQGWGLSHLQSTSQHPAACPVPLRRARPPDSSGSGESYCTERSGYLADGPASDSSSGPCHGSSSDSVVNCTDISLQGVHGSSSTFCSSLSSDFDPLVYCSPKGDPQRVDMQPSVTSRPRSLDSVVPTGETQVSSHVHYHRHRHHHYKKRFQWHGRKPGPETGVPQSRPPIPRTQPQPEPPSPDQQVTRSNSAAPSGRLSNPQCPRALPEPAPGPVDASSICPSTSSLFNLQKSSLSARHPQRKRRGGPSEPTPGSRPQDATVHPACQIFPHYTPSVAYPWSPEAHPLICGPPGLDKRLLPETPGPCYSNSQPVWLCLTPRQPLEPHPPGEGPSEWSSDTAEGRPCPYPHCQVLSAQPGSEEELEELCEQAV
Protocol: (§1) Briefly, arrays of expression vectors, encoding full-length human plasma membrane and tethered secreted proteins, were spotted onto coated slides, then HEK293 cells were grown over the top of the spots and became reverse-transfected resulting in cell surface expression of each respective protein at distinct slide locations. Tritium labeled fenfluramine was applied and specific binding analyzed and confirmed using a phosphorimaging technique. […] Confirmation was achieved by repeating the study with vectors encoding RNF43 and sigma-1 receptor proteins spotted onto slides, upon which HEK293 cells were reverse-transfected. Identical slides were treated before or after cell fixation with 1 micromolar or 5 micromolar 3H-fenfluramine, 20 nanomolar 3H-naloxone, or no compound (n=2 slides per treatment).

sigma-1 receptor = biological target: T2, sigma-1 receptor (Homo sapiens, UniProt Q99720); assay: as above; conditions: tritium labeled fenfluramine, 1 or 5 micromolar in confirmation; HEK293 cells
T2 construct: arrays of expression vectors, encoding full-length human plasma membrane and tethered secreted proteins; expressed in transfected cells; host or cells: HEK293
Protocol: as §1

SCN1a+/− (Dravet) mice [1] = assay: DMBP (degraded myelin basic protein) immunostaining score of myelin debris in brain sections, murine model of Dravet syndrome; format: in vivo, mouse; conditions: for DMBP Avg Score, Ctx / DMBP Avg Score, Hipp / DMBP Avg Score, Hipp + Ctx: Het mice, s.c. once daily P7 to P35-P37, FFA 15 mg/kg, diazepam 10 mg/kg; for DMBP Avg Score, Ctx: cortex; for DMBP Avg Score, Ctx / DMBP Avg Score, Hipp: scale 0-5; for DMBP Avg Score, Hipp: hippocampus, p = 0.00015 Het FFA vs Het vehicle; for DMBP Avg Score, Hipp + Ctx: sum of hippocampus and cortex, maximum 10, p = 0.01 Het FFA vs Het vehicle; for effect on myelin debris (D-MBP) score vs vehicle (saline): hippocampus and cortex of P35-P37 SCN1a+/− mice, 2-tail unequal variance t-test, FIG. 2
Text: (§2) Epilepsy is increasingly recognized as a disease of white matter pathology and damage, see Hatton, S. N. et al [Epilepsy Currents 2021 21:27-29]. To test whether fenfluramine reduced pathology and damage to myelin, a mouse model of Dravet syndrome was used. […] Heterozygous Dravet animals used in the studies reported in Examples 2 and 3 are Scn1atm1Kea 50% C57BL/6J, 50% 129S6/SvEvTac background strain mice generated as described in Miller, A. R. et al. [Genes Brain Behav. 2014 February; 13(2): 163-172]. Briefly, a heterozygous Scn1a+/− null allele was generated by targeted deletion of the first coding exon in TL1 ES cells (12956/SvEvTac). These mice were established and maintained as a co-isogenic strain on the 12956/SvEvTac (129) background. […] P ranges, stated as, e.g. P35-P37, indicate the days postnatal of the study animals Normal axonodendritic, axonosomatic and axonoaxonic synaptic pruning occurs in all mice and peaks at postnatal P21. Postnatal ages for the study animals were chosen to avoid periods of high natural demyelination and microglial activity.
(§3) In Heterozygous Animals, drug or saline sham treatment began at age P7 (i.e., 7 days after birth) with subcutaneous administration of drug or saline injected via insulin syringes.
(§4) At day 7 all pups in each litter were administered an injection volume of 10 μl/g body weight once per day containing: 1) fenfluramine at 15 mg/kg; 2) diazepam at 10 mg/kg; or 3) vehicle (0.9% saline solution), each injection volume based on body weight.
(§5) The administration of each intervention continued every day until age P35-P37, at which time animals were sacrificed to obtain blood and brain tissues which amounted to an aggregate of 28 to 30 days of once daily dosing.
Mice at the end of the dosing period were isoflurane anaesthetized and blood was drawn through cardiac ventricular puncture without perforating the heart or vessels for subsequent perfusion fixation. Blood was processed for plasma and stored at −80C. After creating an incision in the hepatic circulation to allow perfusates an exit point, mice were flushed of remaining blood with 6 mL ice cold phosphate buffered saline through the left ventricle of the heart. Mice were then perfusion fixed with an additional 6 mL of ice cold 4% paraformaldehyde before carefully harvesting right brains into 10% neutral buffered formalin for 24 hours before transferring into phosphate buffered saline with 0.02% sodium azide as an antimicrobial preservative. Right brains were then embedded to paraffin blocks and processed as formalin fixed, paraffin embedded (FFPE) 5 μm thick sagittal sections on glass slides. These FFPE tissues were immunostained, processed, and imaged for degraded myelin and inflammatory microglia.
DMBP antibody (“degraded” Myelin Basic Protein, Anti-Myelin Basic Protein, Millipore Sigma antibody, formerly Sigma AB5864) was applied at 1:1000 dilution with no antigen retrieval. This antibody preferentially detects debris of myelin degradation in human samples without cross reacting to normal myelin. Vector ImPRESS-AP alkaline phosphatase conjugated anti-rabbit IgG (Vector Laboratories) was applied in the secondary detection step with Vector Blue AP substrate as the chromogen. Nuclear Fast Red was applied as a non-specific tissue counterstain before dehydration, clearing, and coverslip mounting steps. Vector Blue signals within finished slides were visualized with the DAPI (UV) excitation/emission channel on an Echo Revolve fluorescence microscope under the 20× objective. Non-specific Nuclear Fast Red staining was visualized under the Texas Red excitation/emission channel to provide anatomical contexts to the overlaid DMBP signals.

SCN1a+/− (Dravet) mice [2] = assay: CD11b+ activated microglia immunostaining score in brain sections, murine model of Dravet syndrome; format: in vivo, mouse; conditions: for CD11b Avg Score, Genu / CD11b Avg Score, PP / CD11b Avg Score, PP + Genu: Het mice, s.c. once daily P7 to P35-P37, FFA 15 mg/kg, diazepam 10 mg/kg; for CD11b Avg Score, Genu: genu of corpus callosum; for CD11b Avg Score, Genu / CD11b Avg Score, PP: scale 0-5; for CD11b Avg Score, PP: perforant pathway of hippocampus; for CD11b Avg Score, PP + Genu: sum of perforant pathway and genu, maximum 10, p = 0.05 Het FFA vs Het vehicle; for effect on CD11b+ activated microglia vs vehicle (saline): genu and perforant pathway of P35-P37 SCN1a+/− mice, 2-tail unequal variance t-test, FIG. 4
Text: as §2, §3, §4, §5
Vector ImPRESS-AP alkaline phosphatase conjugated anti-rabbit IgG (Vector Laboratories) was applied in the secondary detection step with Vector Blue AP substrate as the chromogen. Nuclear Fast Red was applied as a non-specific tissue counterstain before dehydration, clearing, and coverslip mounting steps. Vector Blue signals within finished slides were visualized with the DAPI (UV) excitation/emission channel on an Echo Revolve fluorescence microscope under the 20× objective. Non-specific Nuclear Fast Red staining was visualized under the Texas Red excitation/emission channel to provide anatomical contexts to the overlaid CD11b signals. Perfusion fixed sagittal 5 um FFPE brain sections within approximately 300 um from the midline of the right brains of the P35-P37 wildtype and SCN1A heterozygous 50% B6/50% 129S6 mice from the Fintepla/Diazepam/Saline comparator study were examined for CD11b+ microglia.
A 0-5 ascending pathologist scale was applied in scoring CD11b+ microglia in the perforant pathway of the hippocampus following the hippocampal fissure and murine white matter in the front knob, “genu,” of the corpus callosum (CC). The CC is an elongated midline structure composed of 200-800 million horizontal interconnecting cortical areas. The mature CC contains both myelinated and unmyelinated fibers as well as glial cells (astrocytes and oligodendrocytes), and neurons. The human CC has been divided into five anatomical regions, which include from front to back, the rostrum, the genu, the body or trunk-often subdivided into anterior, middle and posterior body-the isthmus, and the splenium. Most neurons in the callosal fibers release excitatory amino acids (glutamate or aspartate), however a small proportion of GABAergic neurons have been identified in mammals
The scores of the genu and perforant pathway were summed for each animal for a maximum possible score of 10. This antibody preferentially detects activated microglia over surveilling, quiescent microglia across human, rat, and mouse species. Normal, healthy mice have more basal microglial activation in the CNS compared to the normal human CNS.

SCN1a+/− (het) mice = assay: Kaplan Meier estimation of survival in SCN1a+/− (het) mice; format: in vivo, mouse; conditions: P1-P40 SCN1a+/− (het) mice, compared to both placebo and diazepam treatment; FIG. 6
Text: as §2

T2 sequence (Q99720 whole entry): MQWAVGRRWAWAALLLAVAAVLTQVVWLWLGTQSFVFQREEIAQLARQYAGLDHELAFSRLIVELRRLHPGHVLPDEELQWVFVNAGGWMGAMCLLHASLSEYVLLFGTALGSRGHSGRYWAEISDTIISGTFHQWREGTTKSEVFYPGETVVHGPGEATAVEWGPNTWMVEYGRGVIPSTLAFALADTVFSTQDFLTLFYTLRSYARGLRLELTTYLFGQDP

Row | Structure (SMILES) | binding interaction with RNF43 (RNF43) | binding interaction with sigma-1 (sigma-1 receptor) | DMBP Avg Score, Ctx (SCN1a+/− (Dravet) mice [1]) | DMBP Avg Score, Hipp (SCN1a+/− (Dravet) mice [1]) | DMBP Avg Score, Hipp + Ctx (SCN1a+/− (Dravet) mice [1]) | effect on myelin debris (D-MBP) score vs vehicle (saline) (SCN1a+/− (Dravet) mice [1]) | CD11b Avg Score, Genu (SCN1a+/− (Dravet) mice [2]) | CD11b Avg Score, PP (SCN1a+/− (Dravet) mice [2]) | CD11b Avg Score, PP + Genu (SCN1a+/− (Dravet) mice [2]) | effect on CD11b+ activated microglia vs vehicle (saline) (SCN1a+/− (Dravet) mice [2]) | probability of survival over time (SCN1a+/− (het) mice)
1 | CCNC(C)Cc1cccc(C(F)(F)F)c1 (racemic) [FFA, (RS)-N-ethyl-1-[3-(trifluoromethyl)phenyl]propan-2-amine] | interactions were identified in the primary screen | interactions were identified in the primary screen | 2.54 | 2.62 | 5.15 | significantly reduced the myelin debris (D-MBP) score | 2.54 | 2.77 | 5.31 | reduced activated microglia | increases the probability of survival
2 | CN1C(=O)CN=C(c2ccccc2)c2cc(Cl)ccc21 [Diazepam, diazepam] | – | – | 2.44 | 3.22 | 5.67 | not significant | 3.00 | 3.67 | 6.67 | not significant | –
